# Data: patent US20060094661A1, “NY-ESO-1 peptide analogs” (priority 2004, published 2006)
# Where a SMILES comes first, the peptide text is derived from it. [ ]: non-standard residue; d: D form. Nva = CCC[C@H](N)C(=O)O
# What was measured:
# HLA-A*0201 = HLA-A*0201 (Homo sapiens, UniProt P04439, D140Y/D185E/D98H/E176V/E277Q/G131W/G231S/I119V/I121R/I166T/I218V/L300P/L318F/N151K/N90K/P208A/P217A/Q86G/Q94H/R138H/R169H/T345S); assay: ED50 (M)
# Description: Table printed on a drawing sheet, Figure 27B
# Head of the field: ED50 (M)
# [1] = tested on: T cell lines specific for the native epitope (PRAME425-433); assay: Cross reactivity of PRAME425-433 analogs: IFN-γ secretion from T cell line specific for native epitope; assay type: cell-based; details: analog peptide at approximately 0.3 μM; normalized to native peptide
# Experimental: At 7 days after the last boost, the mice were sacrificed and a suspension of splenocytes prepared at 5×10^6 […] cells/ml in complete HL-1 medium. Cells were incubated with different concentrations of peptide for 48 hours in flat-bottomed 96-well plates (200 ul/well) and for an additional 24 hours with rIL-2 at 10 U/ml added to the wells. The supernatant was harvested and the concentration of IFN-gamma assessed by standard methods such as ELISA. […] The observed affinities of the analogs are reported as % binding (compared to the positive control) and ED50s. Stability of binding as half time of dissociation. Cross reactivity with the native epitope was assessed by using the analog peptides to stimulate IFG-gamma secretion from a T cell lines specific for the native epitope, essentially as described in Example 6. The data shown in FIGS. 26-28 were generated by stimulating with analog peptide at approximately 0.3 μM. […] In some cases the reported values are the average of two determinations.
Compound,EC50 (HLA-A*0201) [nM],"IFN-γ elicited, of that of the native peptide [1] [%]"
"CCC[C@H](NC(=O)CNC(=O)[C@@H](NC(=O)[C@H](CC(C)C)NC(=O)[C@H](Cc1c[nH]cn1)NC(=O)[C@H](CCC(N)=O)NC(=O)[C@H](CC(C)C)NC(=O)[C@H](CCC)NC(=O)[C@@H](N)CO)[C@@H](C)CC)C(=O)O [50 | Prame 425-433 (L426(Nva),L433(Nva)), S(Nva)LQHLIG(Nva)] (H-S[Nva]LQHLIG[Nva]-OH; N-terminus and C-terminus assumed)",2940,
"CCC[C@H](NC(=O)CNC(=O)[C@@H](NC(=O)[C@H](CC(C)C)NC(=O)[C@H](Cc1c[nH]cn1)NC(=O)[C@H](CCC(N)=O)NC(=O)[C@H](CC(C)C)NC(=O)[C@H](CCSC)NC(=O)[C@@H](N)CO)[C@@H](C)CC)C(=O)O [56 | Prame 425-433 (L426M,L433(Nva))] (H-SMLQHLIG[Nva]-OH; N-terminus and C-terminus assumed)",688,
Lys P1 analog: PRAME425-433 analog with Lys for the Ser at the P1 position (KLLQHLIGL),,40
